The source of these data is patent publication US20220402935A1, “HETEROCYCLIC COMPOUND” (FIMECS, INC., priority 2019, published 2022).

Counter-ions that a name gives are not always drawn.

One may read the IC50 as the point on the concentration scale where inhibition reaches its midpoint. A word on the inhibition: it is the share of the control response that was lost under treatment.

One test deals with T1, IRAK-M (Homo sapiens, UniProt Q9Y616).
T1 sequence (Q9Y616 1-596): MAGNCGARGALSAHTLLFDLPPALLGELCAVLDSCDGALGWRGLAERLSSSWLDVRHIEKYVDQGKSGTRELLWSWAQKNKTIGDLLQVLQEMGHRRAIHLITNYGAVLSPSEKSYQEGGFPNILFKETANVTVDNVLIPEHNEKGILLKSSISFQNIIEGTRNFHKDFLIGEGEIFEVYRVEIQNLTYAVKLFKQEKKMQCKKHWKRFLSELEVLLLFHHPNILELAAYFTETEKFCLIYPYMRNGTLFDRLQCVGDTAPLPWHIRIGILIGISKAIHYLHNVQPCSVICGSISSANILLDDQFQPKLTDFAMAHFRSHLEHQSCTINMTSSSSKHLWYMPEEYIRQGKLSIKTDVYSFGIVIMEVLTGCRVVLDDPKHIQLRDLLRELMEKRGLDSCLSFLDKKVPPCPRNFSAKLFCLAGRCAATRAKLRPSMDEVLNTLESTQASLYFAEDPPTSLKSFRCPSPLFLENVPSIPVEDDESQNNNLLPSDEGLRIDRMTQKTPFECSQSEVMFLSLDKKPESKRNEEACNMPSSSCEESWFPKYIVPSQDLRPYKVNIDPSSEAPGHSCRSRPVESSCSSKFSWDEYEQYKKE
Briefly: IRAK-M binding inhibitory activity (KINOMEscan active site-dependent competitive assay). The arrangement: purchased Eurofins Discover X. The conditions noted are these: for IC50: second symbol of cell, read-out: IRAK-M binding inhibition IC50 value; for remaining binding at 1 µM: concentration of the test compound 1 μM, first symbol of cell, read-out: IRAK-M binding inhibition activity % Ctrl. Put shortly: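 Active site-dependent competition binding assay (KINOMEscan) against human IRAK-M. Result expressed as % Ctrl = (compound signal − positive control signal)/(DMSO signal − positive control signal) × 100, where DMSO = 100% Ctrl and control compound = 0% Ctrl.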

Test [1] addresses T2, human XIAP_BIR3 domain purified protein (Homo sapiens, UniProt P98170).
T2 construct: purchased R & D
Briefly: XIAP binding inhibitory activity (HTRF, b-Smac ligand). To be noted: for IC50: second symbol of cell, read-out: XIAP binding inhibition IC50 value; for inhibition at 3 µM: concentration of the test compound 3 μM, first symbol of cell, read-out: XIAP binding inhibition rate. The protocol:
Human XIAP binding inhibitory activity was measured by the Homogeneous Time Resolved Fluorescence (HTRF) method with using commercially available human XIAP_BIR3 domain purified protein (R & D) and as a ligand a Smac N-terminal peptide (AVPIAQK (SEQ ID NO: 1)) (hereinafter referred to as “b-Smac”; Peptide Research Laboratories, Inc.) biotinylated at the C-terminus according to a conventional method.
The HTRF method will be described in detail below.
The test compound diluted with a reaction buffer (25 mM HEPES Buffer containing 100 mM NaCl, 0.1% BSA, and 0.1% triton X-100, pH 7.5) was added to a 384-well white shallow bottom plate (Greiner 784076) at 1 μL/well and flash centrifuged for 30 seconds. Subsequently, human XIAP_BIR3 domain purified protein was diluted with the reaction buffer to obtain a 90 nM sample diluent, and the resultant sample diluent was added to the above-mentioned white superficial plate at 4.5 μL/well and flash centrifuged for 30 seconds. Subsequently, b-Smac diluted to 90 nM with the reaction buffer was added to the above-mentioned white superficial plat at 4.5 μL/well and flash centrifuged for 30 seconds. A mixed solution of Anti-6 HIS-Cryptate (Eu^3+ Cryptate-conjugated mouse monoclonal antibody anti-6 Histidine; cisbio) and Streptavidin-XL^eat (Highgrade XL665-conjugated streptavidin; cisbio) both diluted 100-fold with HTRF detection buffer (cisbio) at a volume ratio of 1:1 was added to the above white superficial plate at 10 μL/well. After flash centrifuging the white shallow bottom plate for 30 seconds, the white shallow bottom plate was left at room temperature for 4 hours or more in the dark. The white superficial plate after being left was subjected to fluorescence intensity measurement (excitation wavelength: 320 nm, fluorescence wavelength: 665 nm and 615 nm) by EnVision (Perkin Elmer). The binding inhibition rate (%) was calculated based on the HTRF ratio in the presence of the test compound to the HTRF ratio in the absence of the test compound (fluorescence intensity at 665 nm/fluorescence intensity at 615 nm).
The XIAP binding inhibition rate (%) of test compounds was evaluated.
A general note: Time-resolved FRET reads energy transfer from a long-lived donor to a nearby acceptor.

T2 sequence (P98170 252-356 limits assumed): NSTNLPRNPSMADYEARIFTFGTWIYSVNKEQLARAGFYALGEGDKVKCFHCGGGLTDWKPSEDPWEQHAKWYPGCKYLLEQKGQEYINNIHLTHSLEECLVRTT

In the case of `CN[C@@H](C)C(=O)N[C@H](C(=O)N1CCN(C(=O)c2c(C(=O)NCCOCCOCCOCCOc3cc(CN4CCC(Oc5ccnc6ccsc56)CC4)on3)c3cc(F)c(F)cc3n2C)CC1)C1CCCCC1` [Example 6, 2-(4-((S)-2-cyclohexyl-2-((S)-2-(methylamino)propanamido)acetyl)piperazine-1-carbonyl)-5,6-difluoro-1-methyl-N-(2-(2-(2-(2-((5-((4-(thieno[3,2-b]pyridin-7-yloxy)piperidin-1-yl)methyl)isoxazol-3-yl)oxy)ethoxy)ethoxy)ethoxy)ethyl)-1H-indole-3-carboxamide], the IC50 at IRAK-M was 100 to 300 nM; in test [1] it was 300 to 3000 nM.
As for `Cc1cc2ccc(C(=O)N3CCN(C(=O)CN4C[C@@H](C)NC[C@@H]4COCCOCCOCCOc4cc(CN5CCC(Oc6ccnc7ccsc67)CC5)on4)CC3)cn2c1` [Example 18, 2-((2R,5R)-5-methyl-2-((2-(2-(2-((5-((4-(thieno[3,2-b]pyridin-7-yloxy)piperidin-1-yl)methyl)isoxazol-3-yl)oxy)ethoxy)ethoxy)ethoxy)methyl)piperazin-1-yl)-1-(4-(2-methylindolizine-6-carbonyl)piperazin-1-yl)ethan-1-one], the IC50 at IRAK-M was 300 to 1000 nM; in test [1], less than 300 nM.
Regarding `CN[C@@H](C)C(=O)N[C@H](C(=O)N1CCN(C(=O)c2ccc3c(c2)cc(C)n3CCOCCOCCOCCOc2cc(CN3CCC(Oc4ccnc5ccsc45)CC3)on2)CC1)C1CCCCC1` [Example 53, (S)-N-((S)-1-cyclohexyl-2-(4-(2-methyl-1-(2-(2-(2-(2-((5-((4-(thieno[3,2-b]pyridin-7-yloxy)piperidin-1-yl)methyl)isoxazol-3-yl)oxy)ethoxy)ethoxy)ethoxy)ethyl)-1H-indole-5-carbonyl)piperazin-1-yl)-2-oxoethyl)-2-(methylamino)propanamide], the remaining binding at 1 µM at IRAK-M was less than 25%. In addition, the IC50 in test [1] is 300 to 3000 nM.
Take `CN[C@@H](C)C(=O)N[C@H](C(=O)N1CCN(C(=O)c2c(OCCOCCOCCOc3cc(CN4CCC(Oc5ccnc6ccsc56)CC4)on3)c3cc(F)c(F)cc3n2C)CC1)C1CCCCC1` [Example 21, (S)-N-((S)-1-Cyclohexyl-2-(4-(5,6-difluoro-1-methyl-3-(2-(2-(2-((5-((4-(thieno[3,2-b]pyridin-7-yloxy)piperidin-1-yl)methyl)isoxazol-3-yl)oxy)ethoxy)ethoxy)ethoxy)-1H-indole-2-carbonyl)piperazin-1-yl)-2-oxoethyl)-2-(methylamino)propanamide hydrochloride]: the remaining binding at 1 µM at IRAK-M lay within 25 to 50%. In addition, the inhibition at 3 µM in test [1] fell in the range of 25 to 50%.
For `CN[C@@H](C)C(=O)N[C@H](C(=O)N1CCN(C(=O)c2ccc3c(c2)cc(C)n3CCOCCOCCOc2cc(CN3CCC(Oc4ccnc5ccsc45)CC3)on2)CC1)C1CCCCC1` [Example 55, (S)-N-((S)-1-cyclohexyl-2-(4-(2-methyl-1-(2-(2-(2-((5-((4-(thieno[3,2-b]pyridin-7-yloxy)piperidin-1-yl)methyl)isoxazol-3-yl)oxy)ethoxy)ethoxy)ethyl)-1H-indole-5-carbonyl)piperazin-1-yl)-2-oxoethyl)-2-(methylamino)propanamide], the remaining binding at 1 µM at IRAK-M was in the range of 25 to 50%. In test [1], the IC50 is 300 to 3000 nM.
Regarding `CN[C@@H](C)C(=O)N[C@H](C(=O)N1CCN(C(=O)c2cc3cc(F)ccc3n2CC(=O)N(C)CCOc2cc(CN3CCC(Oc4ccnc5ccsc45)CC3)on2)[C@@H](C)C1)C1CCCCC1` [Example 50, (S)-N-((S)-1-cyclohexyl-2-((S)-4-(5-fluoro-1-(2-(methyl(2-((5-((4-(thieno[3,2-b]pyridin-7-yloxy)piperidin-1-yl)methyl)isoxazol-3-yl)oxy)ethyl)amino)-2-oxoethyl)-1H-indole-2-carbonyl)-3-methylpiperazin-1-yl)-2-oxoethyl)-2-(methylamino)propanamide], the IC50 in test [1] was 3000 to 30000 nM.
With `CN[C@@H](C)C(=O)N[C@H](C(=O)N1CCN(C(=O)c2cc3cc(F)c(F)cc3n2CCOCCOCCOc2cc(CN3CCC(Oc4ccnc5ccsc45)CC3)on2)CC1)C1CCCCC1` [Example 30, (S)-N-((S)-1-cyclohexyl-2-(4-(5,6-difluoro-1-(2-(2-(2-((5-((4-(thieno[3,2-b]pyridin-7-yloxy)piperidin-1-yl)methyl)isoxazol-3-yl)oxy)ethoxy)ethoxy)ethyl)-1H-indole-2-carbonyl)piperazin-1-yl)-2-oxoethyl)-2-(methylamino)propanamide], in test [1], the inhibition at 3 µM is greater than 25%.
In the case of `CN[C@@H](C)C(=O)N[C@H](C(=O)N1CCN(C(=O)c2cc3cc(F)ccc3n2CC(=O)N2C[C@@H](Oc3cc(CN4CCC(Oc5ccnc6ccsc56)CC4)on3)C[C@H]2CO)[C@@H](C)C1)C1CCCCC1` [Example 43, (S)-N-((S)-1-cyclohexyl-2-((S)-4-(5-fluoro-1-(2-((2S,4S)-2-(hydroxymethyl)-4-((5-((4-(thieno[3,2-b]pyridin-7-yloxy)piperidin-1-yl)methyl)isoxazol-3-yl)oxy)pyrrolidin-1-yl)-2-oxoethyl)-1H-indole-2-carbonyl)-3-methylpiperazin-1-yl)-2-oxoethyl)-2-(methylamino)propanamide], the IC50 in test [1] fell in the range of 3000 to 30000 nM.
In the case of `Cc1c(CN2CCC(Oc3ccnc4ccsc34)CC2)cnn1C` [Ref. example 76, 7-((1-((1,5-dimethyl-1H-pyrazol-4-yl)methyl)piperidin-4-yl)oxy)thieno[3,2-b]pyridine], the remaining binding at 1 µM on IRAK-M lay in the range of 50 to 75%.
Turning to `COc1ccc(S(=O)(=O)N2CCC(Oc3ncnc4ccsc34)CC2)cn1` [Ref. example 60, 4-((1-((6-methoxypyridin-3-yl)sulfonyl)piperidin-4-yl)oxy)thieno[3,2-d]pyrimidine], the remaining binding at 1 µM on IRAK-M was 25 to 50%.
Still for that read-out and setting: as for `Ic1cc2ncnc(OC3CCSCC3)c2s1` [Ref. example 35, 6-iodo-4-((tetrahydro-2H-thiopyran-4-yl)oxy)thieno[3,2-d]pyrimidine], the figure is no less than 75%; as for `Cc1cc2nccc(OC3CCN(C(C)c4cc(O)no4)CC3)c2s1` (stereo not shown) [Ref. example 88, 5-(1-(4-((2-methylthieno[3,2-b]pyridin-7-yl)oxy)piperidin-1-yl)ethyl)isoxazol-3-ol], 25 to 50%.
Regarding `COc1cc(Nc2ncnc3ccsc23)ccn1` [Ref. example 23, N-(2-methoxypyridin-4-yl)thieno[3,2-d]pyrimidin-4-amine], on IRAK-M, the remaining binding at 1 µM lay within 25 to 50%.
Regarding `Oc1cc(CN2CCC(Oc3ccnc4ccsc34)CC2)on1` [Ref. example 4, 5-((4-(thieno[3,2-b]pyridin-7-yloxy)piperidin-1-yl)methyl)isoxazol-3-ol], the remaining binding at 1 µM on IRAK-M lay in the range of 50 to 75%.
The same measure, in the same setting: next, `O=S(=O)(c1c(F)cccc1F)N1CCC(Oc2ncnc3ccsc23)CC1` [Ref. example 38, 4-((1-((2,6-difluorophenyl)sulfonyl)piperidin-4-yl)oxy)thieno[3,2-d]pyrimidine]: 25 to 50%; `C=CCOc1cc(C(C)N2CCC(Oc3ccnc4cc(C)sc34)CC2)on1` (racemic) [Ref. example 7, 3-(allyloxy)-5-(1-(4-((2-methylthieno[3,2-b]pyridin-7-yl)oxy)piperidin-1-yl)ethyl)isoxazole (racemate)]: less than 25%; `NC(=O)c1ccc(Nc2ncnc3ccsc23)c(OC2CCOC2)c1` (stereo not shown) [Ref. example 11, 3-((tetrahydrofuran-3-yl)oxy)-4-(thieno[3,2-d]pyrimidin-4-ylamino)benzamide]: 50 to 75%.
